Test results from ChEMBL document CHEMBL5465560, “Selectivity Literature for EUbOPEN Chemogenomic Library” (2024).
Substitutions are numbered along the chain they refer to.

Assays:
Conditions in all cases: at 1 µM
[1] = test system: T1, Receptor-type tyrosine-protein kinase FLT3 (Homo sapiens), P36888 [N841I]; test: (§1) Selectivity interaction (KinomeScan (DiscoverX)) EUB0000311b FLT3
T1 sequence (whole entry): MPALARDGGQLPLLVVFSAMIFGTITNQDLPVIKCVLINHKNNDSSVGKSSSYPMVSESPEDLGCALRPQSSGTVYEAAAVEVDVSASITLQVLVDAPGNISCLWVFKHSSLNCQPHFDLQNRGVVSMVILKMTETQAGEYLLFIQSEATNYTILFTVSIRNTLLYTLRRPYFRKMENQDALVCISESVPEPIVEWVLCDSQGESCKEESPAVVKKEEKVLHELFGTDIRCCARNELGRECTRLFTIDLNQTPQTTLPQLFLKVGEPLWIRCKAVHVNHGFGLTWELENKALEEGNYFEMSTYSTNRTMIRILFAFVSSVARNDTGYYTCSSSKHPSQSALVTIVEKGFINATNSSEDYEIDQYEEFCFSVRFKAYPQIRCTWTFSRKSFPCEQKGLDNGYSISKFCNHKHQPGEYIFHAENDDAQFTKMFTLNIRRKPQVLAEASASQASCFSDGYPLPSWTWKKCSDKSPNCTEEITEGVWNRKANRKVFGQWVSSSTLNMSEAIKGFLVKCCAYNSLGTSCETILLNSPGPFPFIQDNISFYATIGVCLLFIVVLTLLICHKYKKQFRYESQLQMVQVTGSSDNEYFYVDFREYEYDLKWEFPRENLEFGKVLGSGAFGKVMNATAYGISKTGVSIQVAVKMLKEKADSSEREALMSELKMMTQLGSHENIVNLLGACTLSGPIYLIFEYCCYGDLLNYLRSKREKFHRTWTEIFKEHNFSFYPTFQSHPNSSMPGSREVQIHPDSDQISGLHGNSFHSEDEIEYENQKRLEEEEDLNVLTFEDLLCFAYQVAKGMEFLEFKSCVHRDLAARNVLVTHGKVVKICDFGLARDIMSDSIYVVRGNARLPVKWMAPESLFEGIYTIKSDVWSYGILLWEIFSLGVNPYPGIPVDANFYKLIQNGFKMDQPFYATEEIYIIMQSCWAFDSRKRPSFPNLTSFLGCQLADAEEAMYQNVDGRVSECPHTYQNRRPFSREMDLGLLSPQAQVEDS

[2] = test system: T2, Receptor-type tyrosine-protein kinase FLT3 (Homo sapiens), P36888 [D835H]; test: as §1
T2 sequence (whole entry): T1 sequence (whole entry) with D835H, I841N

[3] = target: Receptor-type tyrosine-protein kinase FLT3 (Homo sapiens) (UniProt P36888); test: as §1
[4] = test system: T3, Receptor-type tyrosine-protein kinase FLT3 (Homo sapiens), P36888 [K663Q]; test: as §1
T3 sequence (whole entry): T1 sequence (whole entry) with K663Q, I841N

A % of control [1] of 0%, a % of control [2] of 16% and a % of control [3] of 16% were found for CCc1ccccc1C(=O)Nc1n[nH]c2c(C)c(F)c(C3C(C#N)=C(C)N(C)C(C)=C3C#N)cc12 [BAY-3827] in this work. For the same compound, the % of control [4] was 13%.
